Reference: ChEMBL document CHEMBL1201862, “PubChem BioAssay data set” (2004)
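Test compounds were applied to cells in 96-well plates for 48 hours at 5 doses. Here, GI50 denotes the concentration required for 50% inhibition of growth.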 Active and inactive are the calls of the source. Rule as the data show it: active = GI50 up to about 1.1 µM and inactive = higher.

Columns and labels:
Test in all cases: growth of human tumour cells (NCI), 48 h
SF-539 = tested on: SF-539
U-251 = tested on: U-251
COLO 205 = tested on: COLO 205
TK-10 = tested on: TK-10
MDA-MB-231 = tested on: MDA-MB-231
A549 = tested on: A549
OVCAR-8 = tested on: OVCAR-8
MOLT-4 = tested on: MOLT-4
SF-268 = tested on: SF-268
CAKI-1 = tested on: CAKI-1
SW-620 = tested on: SW-620
RXF 393 = tested on: RXF 393
SN12C = tested on: SN12C
SNB-75 = tested on: SNB-75
IGROV-1 = tested on: IGROV-1
MDA-MB-435 = tested on: MDA-MB-435
MDA-N = tested on: MDA-N
UACC-257 = tested on: UACC-257
UACC-62 = tested on: UACC-62
Malme-3M = tested on: Malme-3M
NCI-H226 = tested on: NCI-H226
PC-3 = tested on: PC-3
NCI-H23 = tested on: NCI-H23
A498 = tested on: A498
786-0 = tested on: 786-0
SR = tested on: SR
HCT-116 = tested on: HCT-116
T47D = tested on: T47D
CCRF-CEM = tested on: CCRF-CEM
ACHN = tested on: ACHN
SF-295 = tested on: SF-295
BT-549 = tested on: BT-549
UO-31 = tested on: UO-31
NCI-H522 = tested on: NCI-H522
SK-MEL-5 = tested on: SK-MEL-5
HL-60 = tested on: HL-60
Hs-578T = tested on: Hs-578T
DU-145 = tested on: DU-145
NCI/ADR-RES = tested on: NCI/ADR-RES
OVCAR-5 = tested on: OVCAR-5
OVCAR-4 = tested on: OVCAR-4
KM12 = tested on: KM12
HCT-15 = tested on: HCT-15
EKVX = tested on: EKVX
SNB-19 = tested on: SNB-19
HT-29 = tested on: HT-29
SK-OV-3 = tested on: SK-OV-3
K562 = tested on: K562
NCI-H460 = tested on: NCI-H460
M14 = tested on: M14
SK-MEL-2 = tested on: SK-MEL-2
RPMI-8226 = tested on: RPMI-8226
LOX IMVI = tested on: LOX IMVI
OVCAR-3 = tested on: OVCAR-3
HOP-62 = tested on: HOP-62
HOP-92 = tested on: HOP-92
SK-MEL-28 = tested on: SK-MEL-28
HCC 2998 = tested on: HCC 2998
MCF7 = tested on: MCF7

`CCCC(CCN)(CCN)[N+](=O)[O-]` was tested, and the GI50 (SF-539) was > 100 µM (inactive), the GI50 (U-251) was > 100 µM (inactive) and the GI50 (COLO 205) was > 100 µM (inactive). For the same molecule, the GI50 (TK-10) was > 100 µM (inactive), the GI50 (MDA-MB-231) was > 100 µM (inactive) and the GI50 (A549) was > 100 µM (inactive). For the same molecule, the GI50 (OVCAR-8) was > 100 µM (inactive), the GI50 (MOLT-4) was > 100 µM (inactive) and the GI50 (SF-268) was > 100 µM (inactive). For the same molecule, the GI50 (CAKI-1) was > 100 µM (inactive), the GI50 (SW-620) was > 100 µM (inactive) and the GI50 (RXF 393) was > 100 µM (inactive). The GI50 (SN12C) was > 100 µM (inactive), the GI50 (SNB-75) was 11.2 µM (inactive) and the GI50 (IGROV-1) was > 100 µM (inactive). For the same molecule, the GI50 (MDA-MB-435) was > 100 µM (inactive), the GI50 (MDA-N) was > 100 µM (inactive) and the GI50 (UACC-257) was > 100 µM (inactive). For the same molecule, the GI50 (UACC-62) was > 100 µM (inactive), the GI50 (Malme-3M) was > 100 µM (inactive) and the GI50 (NCI-H226) was > 100 µM (inactive). For the same molecule, the GI50 (PC-3) was > 100 µM (inactive), the GI50 (NCI-H23) was > 100 µM (inactive) and the GI50 (A498) was > 100 µM (inactive). The GI50 (786-0) was > 100 µM (inactive), the GI50 (SR) was > 100 µM (inactive) and the GI50 (HCT-116) was > 100 µM (inactive). For the same molecule, the GI50 (T47D) was > 100 µM (inactive), the GI50 (CCRF-CEM) was > 100 µM (inactive) and the GI50 (ACHN) was > 100 µM (inactive). The GI50 (SF-295) was > 100 µM (inactive), the GI50 (BT-549) was > 100 µM (inactive) and the GI50 (UO-31) was > 100 µM (inactive). The GI50 (NCI-H522) was > 100 µM (inactive), the GI50 (SK-MEL-5) was > 100 µM (inactive) and the GI50 (HL-60) was > 100 µM (inactive). For the same molecule, the GI50 (Hs-578T) was > 100 µM (inactive), the GI50 (DU-145) was > 100 µM (inactive) and the GI50 (NCI/ADR-RES) was > 100 µM (inactive). The GI50 (OVCAR-5) was > 100 µM (inactive), the GI50 (OVCAR-4) was > 100 µM (inactive) and the GI50 (KM12) was > 100 µM (inactive). For the same molecule, the GI50 (HCT-15) was greater than 100 µM, the GI50 (EKVX) was > 100 µM (inactive) and the GI50 (SNB-19) was > 100 µM (inactive). The GI50 (HT-29) was > 100 µM (inactive), the GI50 (SK-OV-3) was > 100 µM (inactive) and the GI50 (K562) was > 100 µM (inactive). The GI50 (NCI-H460) was > 100 µM (inactive), the GI50 (M14) was > 100 µM (inactive) and the GI50 (SK-MEL-2) was > 100 µM (inactive). For the same molecule, the GI50 (RPMI-8226) was > 100 µM (inactive).
With `N=C(N)SCCSC(=N)N` the GI50 (LOX IMVI) was > 100 µM (inactive), the GI50 (U-251) was > 100 µM (inactive) and the GI50 (COLO 205) was > 100 µM (inactive). The GI50 (TK-10) was > 100 µM (inactive), the GI50 (MDA-MB-231) was > 100 µM (inactive) and the GI50 (A549) was > 100 µM (inactive). For the same molecule, the GI50 (OVCAR-8) was > 100 µM (inactive), the GI50 (MOLT-4) was > 100 µM (inactive) and the GI50 (SF-268) was > 100 µM (inactive). For the same molecule, the GI50 (CAKI-1) was > 100 µM (inactive), the GI50 (SW-620) was > 100 µM (inactive) and the GI50 (RXF 393) was > 100 µM (inactive). The GI50 (OVCAR-3) was > 100 µM (inactive), the GI50 (SN12C) was > 100 µM (inactive) and the GI50 (SNB-75) was > 100 µM (inactive). The GI50 (IGROV-1) was > 100 µM (inactive), the GI50 (HOP-62) was > 100 µM (inactive) and the GI50 (MDA-MB-435) was > 100 µM (inactive). For the same molecule, the GI50 (MDA-N) was > 100 µM (inactive), the GI50 (UACC-257) was > 100 µM (inactive) and the GI50 (UACC-62) was > 100 µM (inactive). The GI50 (Malme-3M) was > 100 µM (inactive), the GI50 (NCI-H226) was > 100 µM (inactive) and the GI50 (PC-3) was > 100 µM (inactive). For the same molecule, the GI50 (NCI-H23) was > 100 µM (inactive), the GI50 (A498) was > 100 µM (inactive) and the GI50 (786-0) was > 100 µM (inactive). For the same molecule, the GI50 (HOP-92) was > 100 µM (inactive), the GI50 (HCT-116) was > 100 µM (inactive) and the GI50 (T47D) was > 100 µM (inactive). The GI50 (SK-MEL-28) was > 100 µM (inactive), the GI50 (ACHN) was > 100 µM (inactive) and the GI50 (HCC 2998) was > 100 µM (inactive). The GI50 (SF-295) was > 100 µM (inactive), the GI50 (MCF7) was > 100 µM (inactive) and the GI50 (BT-549) was > 100 µM (inactive). For the same molecule, the GI50 (UO-31) was > 100 µM (inactive), the GI50 (NCI-H522) was > 100 µM (inactive) and the GI50 (SK-MEL-5) was > 100 µM (inactive). The GI50 (Hs-578T) was > 100 µM (inactive), the GI50 (DU-145) was > 100 µM (inactive) and the GI50 (NCI/ADR-RES) was > 100 µM (inactive). For the same molecule, the GI50 (OVCAR-5) was > 100 µM (inactive), the GI50 (OVCAR-4) was > 100 µM (inactive) and the GI50 (KM12) was > 100 µM (inactive). The GI50 (HCT-15) was greater than 100 µM, the GI50 (EKVX) was 47 µM (inactive) and the GI50 (SNB-19) was > 100 µM (inactive). The GI50 (HT-29) was > 100 µM (inactive), the GI50 (SK-OV-3) was > 100 µM (inactive) and the GI50 (K562) was > 100 µM (inactive). The GI50 (NCI-H460) was > 100 µM (inactive), the GI50 (M14) was > 100 µM (inactive) and the GI50 (RPMI-8226) was > 100 µM (inactive).
